From US6680379B1, “Organic anion transporter genes and proteins” (Metabasis Therapeutics, Inc., priority 1999, dated 2004)

How the values were obtained:
hOAT2A [1] = biological target: T1, hOAT2A (Homo sapiens, UniProt Q9Y694); experiment: Competition assay of 3H-PAH uptake in EcR293/OAT2A cells; assay type: cell-based; parameters: Isolation of Full-length Human OAT2A and OAT2B cDNA; expressed in transfected cells; host or cells: EcR293 (Invitrogen); settings: 100 μM competitor
T1 sequence (Q9Y694 1-546 isoform Q9Y694-2): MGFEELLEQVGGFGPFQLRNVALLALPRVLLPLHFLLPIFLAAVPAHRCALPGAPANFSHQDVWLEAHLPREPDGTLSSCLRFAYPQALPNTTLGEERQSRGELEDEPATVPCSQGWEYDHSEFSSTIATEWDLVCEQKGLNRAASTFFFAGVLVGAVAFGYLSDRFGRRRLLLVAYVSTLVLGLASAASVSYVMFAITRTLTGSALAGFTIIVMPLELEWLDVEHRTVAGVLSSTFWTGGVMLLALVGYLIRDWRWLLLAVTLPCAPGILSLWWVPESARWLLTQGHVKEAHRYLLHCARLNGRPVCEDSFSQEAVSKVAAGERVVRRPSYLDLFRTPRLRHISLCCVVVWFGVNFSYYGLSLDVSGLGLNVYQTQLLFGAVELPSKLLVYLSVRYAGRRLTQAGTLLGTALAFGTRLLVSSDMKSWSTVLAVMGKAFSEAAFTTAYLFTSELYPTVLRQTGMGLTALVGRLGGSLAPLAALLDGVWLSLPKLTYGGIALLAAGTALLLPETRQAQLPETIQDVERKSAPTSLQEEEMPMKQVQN

hOAT2A [2] = biological target: T1, hOAT2A; experiment: 3H-PAH uptake in EcR293 cells stably containing pIND(sp1)-hOAT2A, ponasterone induced; settings: EcR293, 1.25 μg/ml ponasterone for 24 hours
Description: Vector pIND(sp1) (Invitrogen) contains the ecdysone-inducible promoter (EcRE). […] After cloning, the vectors were separately transfected into cell line EcR293 (Invitrogen). […] The pVgRXR vector constitutively expresses the ecdysone receptor and the retinoid X receptor (RXR). The ecdysone receptor and RXR form a heterodimer which, upon activation by the hormone ecdysone, binds to a promoter containing the EcRE. The pVgRXR vector was maintained within the EcR293 cell line by selection with 400 μg/ml zeocin. The pIND(sp1)-hOAT plasmids contain a neomycin resistance marker, and cells stably integrating the plasmids were selected for by culturing the cells in media supplemented with 400 μg/ml G418. After two weeks of selection, individual colonies appeared and were isolated and expanded. […] The cells were then subjected to standard transport assays.
Expression of hOAT1 at high levels can be easily achieved by inducing with ponasterone for twenty-four (24) hours.

3H-PAH uptake, ponasterone induced versus non-induced cells (hOAT2A) (hOAT2A [2]) | SMILES | effect on uptake of 3H-PAH in EcR293/OAT2A cells (hOAT2A [1]) | effect on uptake of 3H-PAH in EcR293/OAT2A cells (hOAT2A [1]; listed as sulfobromophthalein)
– | O=C1OC(c2ccc(O)c(S(=O)(=O)O)c2)(c2ccc(O)c(S(=O)(=O)O)c2)c2c(Br)c(Br)c(Br)c(Br)c21 [BSP, sulfobromophthalein] | blocked | competed
approximately 2.6 fold | Nc1ccc(C(=O)NCC(=O)O)cc1 [PAH, p-aminohippurate] | – | –
